Test results: PubChem BioAssay (NCI)
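Cultured in 96-well plates, cells were exposed to test compound for 48 hours across five concentrations. Here, GI50 denotes the concentration required for 50% inhibition of growth. TGI denotes the concentration required for complete inhibition of growth.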

How the values were obtained:
Test in all cases: growth of human tumour cells (NCI), 48 h
[1] = system: NCI-H23 lung
[2] = system: SF-295 CNS
[3] = system: NCI/ADR-RES ovarian
[4] = system: HOP-62 NSCLC
[5] = system: CAKI-1 renal
[6] = system: RXF 393 renal
[7] = system: SNB-19 CNS
[8] = system: U251 CNS
[9] = system: UO-31 renal
[10] = system: TK-10 renal
[11] = system: SNB-75 CNS
[12] = system: PC-3 prostate
[13] = system: MDA-MB-435
[14] = system: CCRF-CEM leukemia
[15] = system: SF-268 CNS
[16] = system: SK-OV-3 ovarian
[17] = system: A498 renal
[18] = system: OVCAR-4 ovarian
[19] = system: NCI-H460 lung
[20] = system: A549 NSCLC
[21] = system: MDA-MB-231 breast
[22] = system: HOP-92 NSCLC
[23] = system: K-562 leukemia
[24] = system: UACC-62 melanoma
[25] = system: KM12 colon
[26] = system: DU-145 prostate
[27] = system: HS 578T breast
[28] = system: MOLT-4 leukemia

## COc1ccc(/C(C)=C(\c2ccc(Cl)cc2)c2ccc(OCCN3CCCCC3)cc2)cc1
[1]
  GI50: 4.34 µM
  TGI: 10.2 µM
[2]
  GI50: 2.97 µM
  TGI: 7.54 µM
[3]
  GI50: 4.79 µM
  TGI: 9.86 µM
[4]
  GI50: 4.83 µM
  TGI: 9.96 µM
[5]
  GI50: 5.23 µM
  TGI: 12.4 µM
[6]
  GI50: 2.5 µM
  TGI: 7.29 µM
[7]
  GI50: 5.32 µM
  TGI: 12.6 µM
[8]
  GI50: 4.13 µM
  TGI: 8.77 µM
[9]
  GI50: 3.46 µM
  TGI: 7.4 µM
[10]
  GI50: 5.66 µM
  TGI: 13.8 µM
[11]
  GI50: 4.11 µM
  TGI: 10.6 µM
[12]
  GI50: 1.81 µM
  TGI: 6.59 µM
[13]
  GI50: 3.93 µM
  TGI: 8.56 µM
[14]
  GI50: 3.05 µM
  TGI: 14.4 µM
[15]
  GI50: 7.75 µM
  TGI: 26.8 µM
[16]
  GI50: 6.25 µM
  TGI: 12.3 µM
[17]
  GI50: 4.73 µM
  TGI: 10.4 µM
[18]
  GI50: 3.76 µM
  TGI: 9.51 µM
[19]
  GI50: 4.15 µM
  TGI: 9.34 µM
[20]
  GI50: 4.51 µM
  TGI: 10.2 µM
[21]
  GI50: 4.58 µM
  TGI: 9.22 µM
[22]
  GI50: 3.45 µM
  TGI: 7.55 µM
[23]
  GI50: 1.28 µM
  TGI: 10.4 µM
[24]
  GI50: 2.12 µM
  TGI: 6.45 µM
[25]
  GI50: 2.72 µM
  TGI: 16 µM
[26]
  GI50: 8.29 µM
  TGI: 26.6 µM
[27]
  GI50: 5.16 µM
  TGI: 13.3 µM
[28]
  GI50: 4.1 µM
  TGI: 19.5 µM
